Reference: patent US20210040074A1 (The United States of America,as represented by the …, priority 2018, published 2021)

Key:
D4R = biological target: T1, D4R (Homo sapiens, UniProt P21917); assay: D4 β-arrestin recruitment assay (DiscoverX PathHunter, CHO-K1 cells); type: cell-based; set-up: inferred from the same PathHunter system described for D1R and D5R; host or cells: CHO-K1; conditions: for D4 Beta-Arrestin: DA + 50 μM PAM, Fold Change EC50: fold change of dopamine EC50, 50 μM compound; for Dopamine D4-β-arrestin Assay: DA + 50 μM PAM, Fold Change EC50: Table 7, 50 μM compound; for DA + 50 μM PAM, Fold Change EC50: fold change of DA EC50 with 50 μM PAM, Dopamine D4-β-arrestin Assay
T1 sequence (P21917 1-419): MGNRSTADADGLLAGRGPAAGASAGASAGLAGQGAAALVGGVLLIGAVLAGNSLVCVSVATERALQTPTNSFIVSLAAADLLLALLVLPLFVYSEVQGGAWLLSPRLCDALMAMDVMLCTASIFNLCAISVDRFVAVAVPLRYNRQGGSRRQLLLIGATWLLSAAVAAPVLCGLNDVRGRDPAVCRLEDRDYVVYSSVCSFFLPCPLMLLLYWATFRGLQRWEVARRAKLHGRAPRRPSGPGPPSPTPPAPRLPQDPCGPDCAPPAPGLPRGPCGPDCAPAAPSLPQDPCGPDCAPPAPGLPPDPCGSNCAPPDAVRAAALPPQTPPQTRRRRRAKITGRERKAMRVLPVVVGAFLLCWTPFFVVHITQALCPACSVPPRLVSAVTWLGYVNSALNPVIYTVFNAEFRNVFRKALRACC
Protocol: (§1) β-arrestin Recruitment Assay. Agonist-mediated recruitment of β-arrestin-2 to all five DARs was determined using the DiscoveRx PathHunter complementation assay (DiscoverX Inc, Fremont, Calif.), as previously described (Free, et. al., 2014; Conroy, et. al., 2015). […] Following 18-24 h of incubation, the cells were treated with the indicated concentrations of compound in PBS buffer containing 0.2 mM sodium metabisulfite, and incubated at 37° C. for 90 min. DiscoverX reagent was added to cells according to the manufacturer's protocol, followed by a 60 min incubation in the dark at room temperature. Luminescence was measured on a Hamamatsu FDSS μ-Cell reader (Hamamatsu, Bridgewater, N.J.) and data were collected using the FDSS software.

D5 [1] = biological target: T2, D5 (Homo sapiens, UniProt P21918); assay: D5R β-arrestin recruitment assay (DiscoverX PathHunter, CHO cells); type: cell-based; set-up: host or cells: CHO-K1; conditions: for D5 Beta-Arrestin: DA + 50 μM PAM, Fold Change EC50: fold change of dopamine EC50, 50 μM compound; for Dopamine D5-β-arrestin Assay: DA + 50 μM PAM, Fold Change EC50: Table 6, 50 μM compound; for DA + 50 μM PAM, Fold Change EC50: fold change of DA EC50 with 50 μM PAM, Dopamine D5-β-arrestin Assay
Protocol: as §1, with “Assay.” for “Assay. Agonist-mediated recruitment of β-arrestin-2 to all five DARs was determined using the DiscoveRx PathHunter complementation assay (DiscoverX Inc, Fremont, Calif.), as previously described (Free, et. al., 2014; Conroy, et. al., 2015).”
Each PAM was also examined in the absence of DA as an agonist, as indicated.

D5 [2] = biological target: T2, D5; assay: D5 cAMP assay; conditions: fold change of dopamine EC50, 50 μM compound
Protocol: cAMP Accumulation Assay. Assays were performed on D1R-HEK293 (Codex Biosolutions, Gaithersburg, Md.) cells stably expressing the human D1R. HEK293 cell lines were maintained in Dulbecco's modified Eagles medium, supplemented with 10% fetal bovine serum, 100 U/ml penicillin, 100 μg/ml streptomycin, 1 mM sodium pyruvate, and 250 μg/ml G418 and incubated at 37° C., 5% CO2, and 90% humidity. […] After 18-24 h incubation at 37° C., 5% CO2, and 90% humidity, the media was removed and replaced with 5 μL/well PBS. […] Briefly, antibody and working solution was added to each well according to the manufacturer's protocol, and incubated in the dark at room temperature for 60 min. Following incubation, enzyme acceptor reagent was added to the plates and luminescence (RLU) was measured (FDSS μCell, Hamamatsu Photonics K. K., Bridgewater, N.J.) following a 3 h incubation in the dark at room temperature.

human D1R = human D1R (Homo sapiens, UniProt P21728); assay: D1R β-arrestin recruitment assay (DiscoverX PathHunter, CHO-K1 cells); conditions: for Dopamine D1-β-arrestin Assay: DA + 50 μM PAM, Fold Change EC50: Table 5, 50 μM compound; for DA + 50 μM PAM, Fold Change EC50: fold change of DA EC50 with 50 μM PAM, Dopamine D1-β-arrestin Assay
Sequence of human D1R (P21728 whole entry): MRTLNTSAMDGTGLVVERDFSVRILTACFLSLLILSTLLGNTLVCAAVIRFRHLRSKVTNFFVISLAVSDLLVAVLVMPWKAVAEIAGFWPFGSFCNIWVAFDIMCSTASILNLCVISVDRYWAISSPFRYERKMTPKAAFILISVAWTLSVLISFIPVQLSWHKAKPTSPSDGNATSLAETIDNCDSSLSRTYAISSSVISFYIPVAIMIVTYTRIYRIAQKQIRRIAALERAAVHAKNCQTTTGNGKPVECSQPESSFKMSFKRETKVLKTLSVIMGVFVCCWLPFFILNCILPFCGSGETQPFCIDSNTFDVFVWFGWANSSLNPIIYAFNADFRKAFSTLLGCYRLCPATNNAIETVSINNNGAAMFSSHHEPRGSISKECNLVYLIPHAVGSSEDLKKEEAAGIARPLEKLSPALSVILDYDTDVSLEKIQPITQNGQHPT
Protocol: β-arrestin Recruitment Assay. […] Following 18-24 h of incubation, the cells were treated with the indicated concentrations of compound in PBS buffer containing 0.2 mM sodium metabisulfite, and incubated at 37° C. for 90 min. DiscoverX reagent was added to cells according to the manufacturer's protocol, followed by a 60 min incubation in the dark at room temperature. Luminescence was measured on a Hamamatsu FDSS μ-Cell reader (Hamamatsu, Bridgewater, N.J.) and data were collected using the FDSS software.
The DiscoverX PathHunter β-Arrestin Assay was used to measure β-arrestin reuitment to the D1R following the manufacturer's instructions.

T2 sequence (P21918 whole entry): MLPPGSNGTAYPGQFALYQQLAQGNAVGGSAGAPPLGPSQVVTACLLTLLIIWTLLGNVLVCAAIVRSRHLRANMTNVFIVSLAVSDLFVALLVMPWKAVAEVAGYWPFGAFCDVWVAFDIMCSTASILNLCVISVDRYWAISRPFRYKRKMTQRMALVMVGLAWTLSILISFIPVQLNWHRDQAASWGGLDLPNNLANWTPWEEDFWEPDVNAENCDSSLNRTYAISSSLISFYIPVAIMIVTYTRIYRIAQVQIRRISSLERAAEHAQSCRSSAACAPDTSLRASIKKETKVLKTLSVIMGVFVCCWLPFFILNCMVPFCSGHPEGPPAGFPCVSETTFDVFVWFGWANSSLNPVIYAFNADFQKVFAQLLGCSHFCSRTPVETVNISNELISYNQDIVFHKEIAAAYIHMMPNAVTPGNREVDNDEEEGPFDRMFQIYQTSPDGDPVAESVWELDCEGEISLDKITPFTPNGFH

Dopamine D1-β-arrestin Assay: DA + 50 μM PAM, Fold Change EC50 (human D1R) | Dopamine D4-β-arrestin Assay: DA + 50 μM PAM, Fold Change EC50 (D4R) | Dopamine D5-β-arrestin Assay: DA + 50 μM PAM, Fold Change EC50 (D5 [1]) | SMILES | other results
– | – | – | COc1ccc(-n2c(CC3CCCCC3)nc3c(c(=O)c4ccccc4n3C)c2=O)cc1Cl [Compound 19] | D4 Beta-Arrestin: DA + 50 μM PAM, Fold Change EC50 (D4R): 1.78; D5 Beta-Arrestin: DA + 50 μM PAM, Fold Change EC50 (D5 [1]): 1.29; D5 cAMP: DA + 50 μM PAM, Fold Change EC50 (D5 [2]): 1.04
– | – | – | Cn1c2ccccc2c(=O)c2c(=O)n(-c3ccc(Cl)cc3)c(CC3CCCCC3)nc21 [Compound 25] | D4 Beta-Arrestin: DA + 50 μM PAM, Fold Change EC50 (D4R): 0.77; D5 Beta-Arrestin: DA + 50 μM PAM, Fold Change EC50 (D5 [1]): 2.25
– | – | – | Cc1ccc(-n2c(CC3CCCCC3)nc3c(c(=O)c4ccccc4n3C)c2=O)cc1 [Compound 26] | D4 Beta-Arrestin: DA + 50 μM PAM, Fold Change EC50 (D4R): 1.40; D5 Beta-Arrestin: DA + 50 μM PAM, Fold Change EC50 (D5 [1]): 1.15
– | – | – | COc1ccc(-n2c(C3CCCCC3)nc3c(c(=O)c4ccccc4n3C)c2=O)cc1 [Compound 27] | D4 Beta-Arrestin: DA + 50 μM PAM, Fold Change EC50 (D4R): 1.19; D5 Beta-Arrestin: DA + 50 μM PAM, Fold Change EC50 (D5 [1]): 3.35
14.1 | 0.95 | 3.81 | CCCc1nc2c(c(=O)c3ccccc3n2C)c(=O)n1-c1cc(C)cc(C)c1 [R1=3,5-diMePh, R2=n-Propyl, R3=H, X=NMe] | –
1.69 | 1.76 | 2.44 | CC(C)c1nc2c(c(=O)c3ccccc3n2C)c(=O)n1-c1ccc(F)cc1 [R1=4-FPh, R2=i-Propyl, R3=H, X=NMe] | –
1.32 | 1.24 | 6.74 | Cn1c2ccccc2c(=O)c2c(=O)n(Cc3ccccc3)c(-c3ccc(F)cc3)nc21 [R1=Bn, R2=4-FPh, R3=H, X=NMe] | –
3.47 | 0.8 | 7.78 | CCCc1nc2c(c(=O)c3ccccc3n2C)c(=O)n1C1CCCCCC1 [R1=Cycloheptyl, R2=n-Propyl, R3=H, X=NMe] | –
0.85 | 0.99 | 4.94 | COc1ccc2c(=O)c3c(=O)n(-c4ccccc4)c(-c4ccc(C)cc4)nc3oc2c1 [R1=Ph, R2=4-MePh, R3=MeO, X=O] | –
1.33 | 0.8 | 35.49 | Cn1c2ccccc2c(=O)c2c(=O)n(-c3ccccc3)c(-c3ccc(C(C)(C)C)cc3)nc21 [R1=Ph, R2=4-t-BuPh, R3=H, X=NMe] | –
2.06 | 1.7 | 17.2 | CC(C)Cn1c(-c2ccco2)nc2c(c(=O)c3ccccc3n2C)c1=O [R1=i-Bu, R2=2-furyl, R3=H, X=NMe] | –
– | – | – | CC(C)(C)C1CCc2c(sc(NC(=O)c3ccco3)c2C(N)=O)C1 (stereo not drawn) [R4=NH2; R5=NHCO-2-furanyl; R6=t-Bu] | DA + 50 μM PAM, Fold Change EC50 (human D1R): 2.19; DA + 50 μM PAM, Fold Change EC50 (D4R): 1.17; DA + 50 μM PAM, Fold Change EC50 (D5 [1]): 1.14
– | – | – | NC(=O)c1c(NC(=O)c2cccnc2)sc2c1CCCC2 [R4=NH2; R5=NHCO-3-pyridyl; R6=H] | DA + 50 μM PAM, Fold Change EC50 (human D1R): 1.88; DA + 50 μM PAM, Fold Change EC50 (D4R): 1.21; DA + 50 μM PAM, Fold Change EC50 (D5 [1]): 1.03
– | – | – | CC1CCc2c(sc(NC(=O)c3ccc(O)cc3)c2C(N)=O)C1 (stereo not drawn) [R4=NH2; R5=NHCO-4-HOPh; R6=Me] | DA + 50 μM PAM, Fold Change EC50 (human D1R): 1.76; DA + 50 μM PAM, Fold Change EC50 (D4R): 1.2; DA + 50 μM PAM, Fold Change EC50 (D5 [1]): 0.87
– | – | – | Cc1ccccc1NC(=O)c1c(NC(=O)c2ccncc2)sc2c1CCC(C)C2 (stereo not drawn) [R4=NH-2-MePH; R5=NHCO-4-pyridyl; R6=Me] | DA + 50 μM PAM, Fold Change EC50 (D4R): 1.09
– | – | – | Cc1ccccc1NC(=O)c1c(NC(=O)c2ccncc2)sc2c1CCC(C)C2 (stereo not drawn) [R4=NH-2-MePh; R5=NHCO-4-pyridyl; R6=Me] | DA + 50 μM PAM, Fold Change EC50 (human D1R): 2.09; DA + 50 μM PAM, Fold Change EC50 (D5 [1]): 0.83

SMILES | Dopamine D1-β-arrestin Assay: DA + 50 μM PAM, Fold Change EC50 (human D1R) | Dopamine D4-β-arrestin Assay: DA + 50 μM PAM, Fold Change EC50 (D4R) | Dopamine D5-β-arrestin Assay: DA + 50 μM PAM, Fold Change EC50 (D5 [1]) | other results
CCCCCc1nc2c(c(=O)c3ccccc3n2C)c(=O)n1C1CCCCCC1 [R1=Cycloheptyl, R2=n-Pentyl, R3=H, X=NMe] | 1.12 | 1.46 | 3.89 | –
